Measurements taken from paper PMC5175178, “Development of an in-vivo active reversible butyrylcholinesterase inhibitor” (Scientific Reports, 2016).

How the values were obtained:
huBChE = target: T1, huBChE (Homo sapiens, UniProt P06276); type: biochemical; details: Supplementary Table 1; head prints no unit, nM; read-out: IC50 ±SEM huBChE
T1 construct: made in house
Method: (§1) The inhibitory potencies of the compounds against the ChEs were determined using the method of Ellman[32].
(§2) The enzyme solutions were prepared by dilution of the concentrated stocks in phosphate-buffered solution (0.1 M, pH 8.0). […] The reactions were started by addition of the substrate, at room temperature. The final content of the organic solvent (DMSO) was always 1%. […] To determine the blank value (b), phosphate-buffered solution replaced the enzyme solution. The initial velocity (v0) was calculated from the slope of the linear trend obtained, with each measurement carried out in triplicate. […] The compounds were added to each well at a final concentration of 10 μM. […] The initial velocities in the presence of the test compounds (vi) were calculated. The inhibitory potencies are expressed as the residual activities (RA = (vi – b) / (vo – b)). […] The IC50 values were obtained by plotting the residual enzyme activities against the applied inhibitor concentrations, with the experimental data fitted to Equation (1):
(§3) where X is the logarithm of the inhibitor concentration, and Y is the residual activity. For the fitting procedure, the Gnuplot software and an in-house python script were used.

mAChE = target: T2, mAChE (Mus musculus, UniProt P21836); experiment: In-vitro inhibitory activity against mAChE, method of Ellman; type: biochemical, murine; details: residual activity at 10 µM; %RA >75% was considered no inhibition; Supplementary Table 1
T2 construct: donated by Florian Nachon (IBS, Grenoble)
T2 sequence (P21836 32-614): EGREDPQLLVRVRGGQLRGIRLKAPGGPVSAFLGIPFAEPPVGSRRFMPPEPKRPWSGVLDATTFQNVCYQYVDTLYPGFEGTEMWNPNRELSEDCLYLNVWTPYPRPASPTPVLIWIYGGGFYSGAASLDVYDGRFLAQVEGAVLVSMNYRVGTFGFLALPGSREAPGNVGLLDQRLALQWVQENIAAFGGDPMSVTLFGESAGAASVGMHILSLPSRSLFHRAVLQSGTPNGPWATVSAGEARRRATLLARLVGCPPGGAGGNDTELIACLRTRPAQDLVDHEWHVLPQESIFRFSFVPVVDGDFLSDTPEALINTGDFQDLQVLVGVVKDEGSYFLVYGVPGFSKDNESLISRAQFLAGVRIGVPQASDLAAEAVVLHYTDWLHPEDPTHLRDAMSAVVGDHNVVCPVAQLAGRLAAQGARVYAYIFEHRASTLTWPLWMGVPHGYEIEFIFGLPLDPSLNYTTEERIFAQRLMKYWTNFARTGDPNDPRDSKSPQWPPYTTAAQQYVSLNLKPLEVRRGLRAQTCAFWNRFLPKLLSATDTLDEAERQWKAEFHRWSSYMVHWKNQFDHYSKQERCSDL
Method: as §1, §2, §3

T1 sequence (P06276 29-602): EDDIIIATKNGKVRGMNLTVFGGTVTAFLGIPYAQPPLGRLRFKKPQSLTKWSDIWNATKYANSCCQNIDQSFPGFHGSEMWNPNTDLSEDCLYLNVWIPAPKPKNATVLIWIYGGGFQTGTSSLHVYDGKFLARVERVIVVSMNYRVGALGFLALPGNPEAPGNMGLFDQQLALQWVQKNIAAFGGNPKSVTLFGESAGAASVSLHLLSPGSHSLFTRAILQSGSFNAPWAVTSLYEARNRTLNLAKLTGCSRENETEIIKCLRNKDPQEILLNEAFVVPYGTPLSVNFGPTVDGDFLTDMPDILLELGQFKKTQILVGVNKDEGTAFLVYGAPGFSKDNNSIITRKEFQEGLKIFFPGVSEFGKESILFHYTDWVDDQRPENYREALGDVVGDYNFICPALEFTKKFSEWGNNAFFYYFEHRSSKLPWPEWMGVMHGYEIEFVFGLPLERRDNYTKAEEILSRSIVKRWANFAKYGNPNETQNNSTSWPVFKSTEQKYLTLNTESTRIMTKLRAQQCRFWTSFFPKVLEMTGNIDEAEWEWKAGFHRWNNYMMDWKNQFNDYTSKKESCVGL

| SMILES | IC50 (huBChE) [nM] | %RA at 10 µM ±SEM mAChE (mAChE) |
| --- | --- | --- |
| COCCN(CC1CCCN(Cc2ccccc2)C1)S(=O)(=O)c1cccc2ccccc12 (racemic) [compound 42, (±)-N-((1-benzylpiperidin-3-yl)methyl)-N-(2-methoxyethyl)naphthalene-1-sulfonamide] | 59 ± 5.4 | 94% ±4% |
| COCCN(CC1CCCN(Cc2ccccc2)C1)S(=O)(=O)c1ccc2ccc(OC)cc2c1 (racemic) [compound 43, (±)-N-((1-benzylpiperidin-3-yl)methyl)-7-methoxy-N-(2-methoxyethyl)naphthalene-2-sulfonamide] | 156 ± 33 | 95% ±7% |
| CCN(CC1CCCN(Cc2ccccc2)C1)S(=O)(=O)c1ccc2ccccc2c1 (racemic) [compound 46, (±)-N-((1-benzylpiperidin-3-yl)methyl)-N-ethylnaphthalene-2-sulfonamide] | 38 ± 2.6 | 93% ±2% |
| CCCN(CC1CCCN(Cc2ccccc2)C1)S(=O)(=O)c1ccc2ccccc2c1 (racemic) [compound 47, (±)-N-((1-benzylpiperidin-3-yl)methyl)-N-propylnaphthalene-2-sulfonamide] | 42.8 ± 6.4 | 84% ±3% |
| CCCCN(CC1CCCN(Cc2ccccc2)C1)S(=O)(=O)c1ccc2ccccc2c1 (racemic) [compound 48, (±)-N-((1-benzylpiperidin-3-yl)methyl)-N-butylnaphthalene-2-sulfonamide] | 35.5 ± 4.4 | 90% ±1% |
| COCCCN(CC1CCCN(Cc2ccccc2)C1)S(=O)(=O)c1ccc2ccc(OCC#N)cc2c1 (racemic) [compound 49, (±)-N-((1-benzylpiperidin-3-yl)methyl)-7-(cyanomethoxy)-N-(3-methoxypropyl)naphthalene-2-sulfonamide] | 113 ± 8 | 93% ±3% |
| O=S(=O)(NCC1CCCN(Cc2ccncc2)C1)c1ccc2ccccc2c1 (racemic) [compound 64, (±)-N-((1-(pyridin-4-ylmethyl)piperidin-3-yl)methyl)naphthalene-2-sulfonamide] | 1670 ± 256 | 95% ±5% |
| Cc1nc(CN2CCCC(CNS(=O)(=O)c3ccc4ccccc4c3)C2)cs1 (racemic) [compound 65, (±)-N-((1-((2-methylthiazol-4-yl)methyl)piperidin-3-yl)methyl)naphthalene-2-sulfonamide] | 336 ± 31 | 71% ±4% |
| Cc1cccc(CN2CCCC(CNS(=O)(=O)c3ccc4ccccc4c3)C2)c1 (racemic) [compound 66, (±)-N-((1-(3-methylbenzyl)piperidin-3-yl)methyl)naphthalene-2-sulfonamide] | 287 ± 22 | 57% ±4% |
| O=S(=O)(NCC1CCCN(Cc2ccc(F)cc2Cl)C1)c1ccc2ccccc2c1 (racemic) [compound 67, (±)-N-((1-(2-chloro-4-fluorobenzyl)piperidin-3-yl)methyl)naphthalene-2-sulfonamide] | 347 ± 60 | 73% ±4% |
| O=S(=O)(NCC1CCCN(Cc2ccc(F)cc2)C1)c1ccc2ccccc2c1 (racemic) [compound 68, (±)-N-((1-(4-fluorobenzyl)piperidin-3-yl)methyl)naphthalene-2-sulfonamide] | 583 ± 43 | 75% ±4% |
